According to patent US20230114946A1, “MESOSCALE NANOPARTICLES FOR SELECTIVE TARGETING TO THE KIDNEY AND METHODS OF THEIR THERAPEUTIC USE” (Memorial Sloan Kettering Cancer Center, priority 2015, published 2023):

System: human kidney proximal tubular epithelial cell line HK-2
Test: In vitro nanoparticle uptake
Type: cell-based
Conditions: inhibitor of clathrin/caveolin-mediated endocytosis
Protocol: The following cell lines were used to determine uptake of anionic and cationic nanoparticles in vitro: MCF-7 human breast adenocarcinoma (ATCC; Manassas, Va.), SK-RC-48 human clear cell renal cell carcinoma (ccRCC) (Weill Cornell Medical College; New York, N.Y.), bEND3 mouse brain endothelial (ATCC), endothelial cell line EA-926, and human kidney proximal tubular epithelial cell line HK-2. MCF-7 cells were cultured in Dulbecco's Modified Eagle Medium (DMEM) with penicillin (10,000 U/mL)/streptomycin (10,000 U/mL)/glutamine (29.2 mg/mL) (Gibco; Carlsbad, Calif.), 0.01 mg/mL human recombinant insulin (Gibco), and 10% fetal bovine serum (FBS) (Gibco); SK-RC-48 were cultured in DMEM with 1× penicillin/streptomycin/glutamine and 10% FBS; and bEND3 cells in the same plus 1% glutaMAX (Gibco). HK-2 cells were cultured in Keratinocyte Serum Free Media (Gibco). EA-926 cells were cultured in RPMI-1640 medium (Gibco) supplemented with 10% FBS. Cells were passaged approximately weekly and media changed every 2-3 days. Cells were seeded into a 6-well cell culture dish for uptake studies. […]
Cells were incubated with 100 μg/mL NPs in 1 mL of their respective complete medias for 30 minutes. […] Cells were imaged with a fluorescence microscope using Cy5 filters.

O=C(N/N=C/c1ccc(O)c(O)c1)c1cc2ccccc2cc1O [Dynasore]
inhibition of MNP uptake into HK-2 cells: can be inhibited
